How the values were obtained:
[1] = system: adult patients with newly diagnosed AML; test: Clinical outcome of VTX-containing induction chemotherapy, clusters by 36-protein classifier (Example 2); format: in vivo, human
Excerpt: Sample Collection and Processing. Peripheral blood (PB) and bone marrow (BM) samples were collected from 818 adult patients with newly diagnosed AML, of which 143 received VTX-containing induction chemotherapy, evaluated at the University of Texas MD Anderson Cancer Center (MDACC) between January 2012 and July 2020. Informed consent was obtained in accordance with the Declaration of Helsinki. Samples were processed and analyzed under an Investigational Review Board (IRB) approved laboratory protocol (Lab 06-0565).
Following data normalization, a cohort of 143 patients that received VTX-containing induction chemotherapy was identified for separate analysis for the purposes of this manuscript. Survival curves were generated by Kaplan-Meier method and survival data was analyzed by multivariate cox regression model. [Refs. 12, 13] Protein expression signatures were identified by hierarchical Progeny clustering. [Ref. 14] Correlations between clustered protein signatures and clinical features were assessed using Fisher's exact test for categorical variables and the Kruskal-Wallis test for continuous variables. Multivariate analysis for survival outcomes OS and RD was performed by Cox regression model. Median protein expression within clusters was compared to median expression in the normal controls to identify significant expression trends with the Wilcoxon test. Protein networks were built using Cytoscape (version 3.9.1) combining literature-based protein interactions queried from the STRING database and proteomic-based interactions inferred from the RPPA data derived from Pearson correlation. [Ref. 11] Predictive classifier models were assembled in Python using the random forest machine learning technique. All bioinformatics and analysis were performed in Rstudio (version 1.3.1093) with R (version 4.1.2).
A cohort of 143 patients that received VTX as a component of induction chemotherapy was identified, of which 27 received VTX combined with high-dose cytarabine (Ara-C), 29 combined with low- or standard-dose Ara-C, […], 6 with high-dose Ara-C and a hypomethylating agent, and 12 combined with targeted therapy (5 FLT3 inhibitors, 5 IDH inhibitors, 2 TP53 inhibitors). In the VTX cohort, 5 patients were not treated at MDACC leaving 138 patients evaluable for outcome and further analysis. Median age at diagnosis was 68 years (range 18-90 years) with median follow-up 58 weeks (range 2-396 weeks). […] Patient demographic, diagnostic labs, (data not shown) treatment, and outcome data was compiled to be analyzed against protein expression data.
Next, recurring patterns of expression were identified across the 36 proteins correlated to OS (FIGS. 3A and 3B) by applying the Progeny clustering algorithm utilizing k-means, and unbiased hierarchical clustering [Ref. 14] identifying three distinct protein expression patterns Cluster 1 (C1; n=41), Cluster 2 (C2; n=63), and Cluster 3 (C3; n=39). Protein expression was somewhat heterogeneous between clusters for several proteins, namely AR, STAT3.pY705, and RAF1.pS338. Expression of CDKN1B and CDKN1B.pS10 were nearly universally high in AML samples relative to the CD34+ controls, albeit phosphorylated CDKN1B was relatively higher in C1 members. While universally low across AMVL samples, ASH2L and MSH6 were relatively lower in the C1 signature as were PRMT1, MAPK14.pT180, HSF1.pS326, EIF4EBP1.pS65, EIF2AK2, and WDR5. The C3 signature was marked by relatively high expression of PrMT1, KMT2D, STAT3.pS727, EP300, and TSC2 and relatively low expression in AKR1C3, YWHAE, TNK1, COPS5, ATF3, SGK1, VTCN1, TNFRSF4, and PEA15.

MV4-11 VTX-sen cell line = test: Immunoblot protein expression after VTX treatment, MV4-11 cells; format: cell-based; settings: 24 hours post treatment with VTX, identical experimental conditions
Method: Protein expression validation in AML cell lines. MOLM-13 parental and VTX-resistant cells were the kind gift of Dr. Marina Konopleva (MD Anderson Cancer Center; Houston, TX, USA). OCI-AML-3, KG-1, and MV4-11 cells were obtained from the Leukemia Sample Bank (LSB) at MD Anderson. For protein expression comparison in cell lines, immunoblot analysis was performed. Cells were boiled and sonicated in lysis buffer and protein (1.5×10^5 cell equivalents) was subjected to electrophoresis using SDS/PAGE. Immunoblot analysis was performed with antibodies against CBL (BD Transduction Lab), PRKCB.pS660 (Cell Signaling, Beverly, MA), SYK (Santa Cruz, Dallas, TX), PKM2 (Cell Signaling), STAT3.pS727 (Cell Signaling), Beta-Actin (Sigma Aldrich, St. Louis, MO), GADPH (Ambion, Austin, TX) and Alpha-Tubulin (Sigma Aldrich). Signals were detected by using the ProteinSimple FluorChem imaging system and quantified by AlphaView software. Beta-Actin, GAPDH, and Alpha-Tubulin were used as loading controls. Densitometry was calculated as protein expression/expression of housekeeping gene, relative to the control.
The above findings were validated by looking for similar responses in cell lines in vitro in response to VTX exposure. […]

adults with AML = test: Clinical outcome of VTX treated patients, clusters by 44-protein classifier (Example 1); format: in vivo, human
Method: Reverse Phase Protein Array (RPPA) as described by Tibes et al. 2006 and Kornblau et al. 2011 was performed on leukemia blast enriched fractions prepared from diagnostic samples of 818 adults with AML, of which 143 were treated with venetoclax (VTX) including 33 in combination with high dose Ara-C, 5 with standard dose Ara-C, 50 with hypomethylating agents (HMA), and 13 with HMA and targeted therapy (either CPX-351 liposome, a dual-drug liposomal encapsulation of cytarabine and daunorubicin, or anthracycline). Protein expression levels were evaluated using 390 validated antibodies against total and post translationally modified (phosphorylated, methylated, cleaved) as described by Hoff et al. 2019. proteins and were analyzed in the context of clinical data compiled by retrospective chart review. Pearson correlation was used to identify significant protein-protein correlations. Survival curves were generated by the Kaplan-Meier method and survival data was analyzed by multivariate cox regression model. Protein expression signatures were identified by hierarchical clustering and predictive models of protein classifiers were determined by classification and regression trees (CART) analysis.
We queried the 390 proteins (Table 1) assayed in the 143 VTX treated patients to identify proteins individually prognostic for overall survival (OS) or remission duration (REMDUR) and identified 27 proteins correlated with OS (p<0.01) and 44 proteins correlated with REMDUR (p<0.01). Neither MCL1, BCLXL nor BCL2 expression at diagnosis were prognostic of overall survival (OS) or remission duration (REMDUR).

## CC1(C)CCC(CN2CCN(c3ccc(C(=O)NS(=O)(=O)c4ccc(NCC5CCOCC5)c([N+](=O)[O-])c4)c(Oc4cnc5[nH]ccc5c4)c3)CC2)=C(c2ccc(Cl)cc2)C1 [VTX, venetoclax]
[1]; C1
  median OS: 182.7 weeks
[1]; C1, patients that achieved remission (n=32)
  relapse rate: 21.9%
[1]; C2
  median OS: 55.1 weeks
  median remission duration: 129 weeks
[1]; C2, patients that achieved remission (n=40)
  relapse rate: 42.5%
[1]; C3
  median OS: 35.7 weeks
  median remission duration: 39 weeks
[1]; C3, patients that achieved remission (n=18)
  relapse rate: 66.7%
[1]; Cluster 1 (C1)
  Remission rate: 82%
[1]; Cluster 2 (C2)
  Remission rate: 70%
[1]; Cluster 3 (C3)
  Remission rate: 50%
[1]; all evaluable patients (138), n=90
  Remission (CR/CRi) achieved: 65%
[1]; of 90 patients in remission, n=36
  relapsed, of patients in remission: 40%
MV4-11 VTX-sen cell line
  reduction in the expression of PKM2: > 50%
Adults with AML; cluster 1
  Remission rate: 61%
  relapse risk (RR) at 1-yr: 45%
Adults with AML; cluster 1 (n=102)
  estimated 3-yr overall survival: 27%
Adults with AML; cluster 2
  Remission rate: 77%
  relapse risk (RR) at 1-yr: 18%
Adults with AML; cluster 2 (n=41)
  estimated 3-yr overall survival: 66%

Reference: patent US20240426824A1, “METHODS RELATING TO TREATMENT OF ACUTE MYELOID LEUKEMIA” (BOARD OF REGENTS, THE UNIVERSITY OF TEXAS SYSTEM, priority 2021, published 2024)
